Laboratory results published in US20230159445A1, “STAT INHIBITORY COMPOUNDS AND COMPOSITIONS” (JANPIX LIMITED, priority 2020, published 2023).

Assays:
glutathione (GSH) = assay: Reactivity Profiling with Glutathione (GSH), half-life by HPLC; settings: 5 mM glutathione (GSH) in IMDM with 10% FBS
Procedure: 3.5 μL of 5 mM stocking solution of the inhibitors in DMSO was added to 697.5 μL of Iscove's Modified Dulbecco's Medium (IMDM) supplemented with 10% FBS and antibiotic antimycotic solution, with 5 mM glutathione to afford a final concentration of 25 μM inhibitor with 0.5% DMSO. The solution was then immediately placed in the sample tray at 25° C. […] For each inhibitor, its peak is integrated at different time points and compared to the time zero injection in order to obtain a percentage remaining. Half-life is calculated according to a first order reaction kinetic taking into account those time points for which remaining percentage of inhibitor is above 40%, using the formula: t½=Ln(2)/k, where k is the slope of the linear plot of Ln[Inhibitor] vs time, according to the formula: Ln[A]=Ln[A]0−kt, where [A] is the value resulting from the integration at each time point, [A]0 the value at time zero, and t the time. For each inhibitor, both replicates are averaged and the resulting t½ reported.

MV4-11 cells = assay: MV4-11 Cell Cytotoxicity Assay (CellTiter-Blue, 72 h); type: cell-based, human; settings: Homo sapiens, MV4-11; MV-4-11 cells
Method in brief: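 Cells seeded 24 h before treatment, then exposed 72 h at 37° C, 5% CO2 to inhibitors in triplicate, top concentration 50 μM with 1:2 serial dilutions (0.5% DMSO vehicle). Viability read by CellTiter-Blue fluorescence at 560/590 nm after 1 h.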

Row | SMILES | half-life at 25 μM (glutathione (GSH)) [h] | IC50 (MV4-11 cells) [µM]
1 | CC(C)COc1cc(CN(C(=O)CN(Cc2ccc(Cl)cc2)S(=O)(=O)c2c(F)c(F)c(F)c(F)c2F)c2ccc(C(=O)O)c(O)c2)cc(OCC2CC2)c1 [Compound 1010, 4-(2-(N-(4-chlorobenzyl)-(2,3,4,5,6-pentafluorophenyl)sulfonamido)-N-(3-(cyclopropylmethoxy)-5-isobutoxybenzyl)acetamido)-2-hydroxybenzoic acid] | 2.37 to 4.12 | 3.16 to 100
2 | CC(C)(C)c1cc(CN(C(=O)CN(Cc2ccc(Cl)cc2)S(=O)(=O)c2c(F)c(F)c(F)c(F)c2F)c2ccc(C(=O)O)cc2O)cc(C2CC2)c1 [Compound 1015, 4-(N-(3-(tert-butyl)-5-cyclopropylbenzyl)-2-(N-(4-chlorobenzyl)-(2,3,4,5,6-pentafluorophenyl)sulfon-amido)acetamido)-3-hydroxybenzoic acid] | 4.12 to 9.23 | 3.16 to 100
3 | COc1cc(N(Cc2cc(C3CC3)cc(C(C)(C)C)c2)C(=O)CN(Cc2ccc(Cl)cc2)S(=O)(=O)c2c(F)c(F)c(F)c(F)c2F)ccc1C(=O)O [Compound 1017, 4-(N-(3-(tert-butyl)-5-cyclopropylbenzyl)-2-(N-(4-chlorobenzyl)-(2,3,4,5,6-pentafluorophenyl)sulfon-amido)acetamido)-2-methoxybenzoic acid] | 4.12 to 9.23 | 0.316 to 1
4 | CC(C)c1cc(CN(C(=O)CN(Cc2ccc(Cl)cc2)S(=O)(=O)c2c(F)c(F)c(F)c(F)c2F)c2ccc(C(=O)O)c(O)c2)cc(C2CC2)c1 [Compound 1021, 4-(2-(N-(4-chlorobenzyl)-(2,3,4,5,6-pentafluorophenyl)sulfon-amido)-N-(3-cyclopropyl-5-isopropylbenzyl)acetamido)-2-hydroxybenzoic acid] | 0.00167 to 2.37 | 3.16 to 100
5 | CC(C)(C)c1cc(CN(C(=O)CN(Cc2ccc(Cl)cc2)S(=O)(=O)c2c(F)c(F)c(F)c(F)c2F)c2ccc(C(N)=O)cc2)cc(C2CC2)c1 [Compound 1031, 4-(N-(3-(tert-butyl)-5-cyclopropylbenzyl)-2-(N-(4-chlorobenzyl)-(2,3,4,5,6-pentafluorophenyl)sulfon-amido)acetamido) benzamide] | 9.23 to 1670 | 1 to 3.16
6 | CC(C)(C)c1cc(CN(C(=O)CN(Cc2ccc(Cl)cc2)S(=O)(=O)c2c(F)c(F)c(F)c(F)c2F)c2ccc(C(=O)O)c(F)c2)cc(C2CC2)c1 [Compound 1033, 4-(N-(3-(tert-butyl)-5-cyclopropylbenzyl)-2-(N-(4-chlorobenzyl)-(2,3,4,5,6-pentafluorophenyl)sulfon-amido)acetamido)-2-fluorobenzoic acid] | 0.00167 to 2.37 | 1 to 3.16
7 | COc1ccccc1CN(CC(=O)N(Cc1cc(C2CC2)cc(C(C)(C)C)c1)c1ccc(C(=O)O)c(O)c1)S(=O)(=O)c1c(F)c(F)c(F)c(F)c1F [Compound 1037, 4-(N-(3-(tert-butyl)-5-cyclopropylbenzyl)-2-(N-(2-methoxybenzyl)-(2,3,4,5,6-pentafluoro-phenyl)sulfonamido)acetamido)-2-hydroxybenzoic acid] | 2.37 to 4.12 | 1 to 3.16
8 | C[C@H](CC(=O)N(Cc1cc(C2CC2)cc(C(C)(C)C)c1)c1ccc(C(=O)O)c(O)c1)N(Cc1ccc(Cl)cc1)S(=O)(=O)c1c(F)c(F)c(F)c(F)c1F [Compound 1039, (R)-4-(N-(3-(tert-butyl)-5-cyclopropylbenzyl)-3-(N-(4-chlorobenzyl)-(2,3,4,5,6-pentafluorophenyl)sulfon-amido)butanamido)-2-hydroxybenzoic acid] | 2.37 to 4.12 | 1 to 3.16
9 | C[C@@H](CC(=O)N(Cc1cc(C2CC2)cc(C(C)(C)C)c1)c1ccc(C(=O)O)c(O)c1)N(Cc1ccc(Cl)cc1)S(=O)(=O)c1c(F)c(F)c(F)c(F)c1F [Compound 1040, (S)-4-(N-(3-(tert-butyl)-5-cyclopropylbenzyl)-3-(N-(4-chlorobenzyl)-(2,3,4,5,6-pentafluorophenyl)sulfon-amido)butanamido)-2-hydroxybenzoic acid] | 4.12 to 9.23 | 3.16 to 100
10 | CC(C)(C)c1cc(CN(C(=O)CN(Cc2ccccc2C(F)(F)F)S(=O)(=O)c2c(F)c(F)c(F)c(F)c2F)c2ccc(C(=O)O)c(O)c2)cc(C2CC2)c1 [Compound 1048, 4-(N-(3-(tert-butyl)-5-cyclopropylbenzyl)-2-(N-(2-(trifluoromethyl)benzyl)-(2,3,4,5,6-pentafluoro-phenyl)sulfonamido)acetamido)-2-hydroxybenzoic acid] | 9.23 to 1670 | 1 to 3.16
11 | CC(C)(C)c1cc(CN(C(=O)CN(Cc2ccc(Cl)cc2)S(=O)(=O)c2c(F)c(F)c(F)c(F)c2F)c2ccc(C(=O)O)cc2OC(F)(F)F)cc(C2CC2)c1 [Compound 1050, 4-(N-(3-(tert-butyl)-5-cyclopropylbenzyl)-2-(N-(4-chlorobenzyl)-(2,3,4,5,6-pentafluorophenyl)sulfon-amido)acetamido)-3-(trifluoromethoxy) benzoic acid] | 9.23 to 1670 | 1 to 3.16
12 | CC(C)(C)c1cc(CN(C(=O)CCN(Cc2ccc(Cl)cc2)S(=O)(=O)c2c(F)c(F)c(F)c(F)c2F)c2ccc(C(=O)O)c(O)c2)cc(C2CC2)c1 [Compound 1052, 4-(N-(3-(tert-butyl)-5-cyclopropylbenzyl)-3-(N-(4-chlorobenzyl)-(2,3,4,5,6-pentafluorophenyl)sulfon-amido)propanamido)-2-hydroxybenzoic acid] | 2.37 to 4.12 | 3.16 to 100
13 | O=C(O)c1ccc(N(Cc2cc(Br)cc(C3CC3)c2)C(=O)CN(Cc2ccc(Cl)cc2)S(=O)(=O)c2c(F)c(F)c(F)c(F)c2F)cc1O [Compound 1054, 4-(N-(3-bromo-5-cyclopropylbenzyl)-2-(N-(4-chlorobenzyl)-(2,3,4,5,6-pentafluorophenyl)sulfon-amido)acetamido)-2-hydroxybenzoic acid] | 0.00167 to 2.37 | 3.16 to 100
14 | CC(C)(C)c1cc(CN(C(=O)CN(Cc2ccc(Cl)cc2)S(=O)(=O)c2c(F)c(F)c(F)c(F)c2F)c2ccc(S(N)(=O)=O)cc2)cc(C2CC2)c1 [Compound 1055, N-(3-(tert-butyl)-5-cyclopropylbenzyl)-2-(N-(4-chlorobenzyl)-(2,3,4,5,6-pentafluorophenyl)sulfon-amido)-N-(4-sulfamoylphenyl) acetamide] | 9.23 to 1670 | 1 to 3.16
15 | Cc1cc(C(=O)O)ccc1N(Cc1cc(C2CC2)cc(C(C)(C)C)c1)C(=O)CN(Cc1ccc(Cl)cc1)S(=O)(=O)c1c(F)c(F)c(F)c(F)c1F [Compound 1056, 4-(N-(3-(tert-butyl)-5-cyclopropylbenzyl)-2-(N-(4-chlorobenzyl)-(2,3,4,5,6-pentafluorophenyl)sulfon-amido)acetamido)-3-methylbenzoic acid] | 4.12 to 9.23 | 0.316 to 1
16 | CC(C)(C)c1cc(CN(C(=O)CN(Cc2ccccc2F)S(=O)(=O)c2c(F)c(F)c(F)c(F)c2F)c2ccc(C(=O)O)cc2N2CCC2)cc(C2CC2)c1 [Compound 1058, 3-(azetidin-1-yl)-4-(N-(3-(tert-butyl)-5-cyclopropylbenzyl)-2-(N-(2-fluorobenzyl)-(2,3,4,5,6-pentafluoro-phenyl)sulfonamido)acetamido)benzoic acid] | 9.23 to 1670 | 0.316 to 1
17 | CN(C)c1cc(C(=O)O)c(F)cc1N(Cc1cc(C2CC2)cc(C(C)(C)C)c1)C(=O)CN(Cc1ccccc1F)S(=O)(=O)c1c(F)c(F)c(F)c(F)c1F [Compound 1060, 4-(N-(3-(tert-butyl)-5-cyclopropylbenzyl)-2-(N-(2-fluorobenzyl)-(2,3,4,5,6-pentafluoro-phenyl)sulfonamido)acetamido)-5-(dimethylamino)-2-fluorobenzoic acid] | 4.12 to 9.23 | 1e-05 to 0.316
18 | CN(c1cc(C(=O)O)ccc1N(Cc1cc(C2CC2)cc(C(C)(C)C)c1)C(=O)CN(Cc1ccccc1F)S(=O)(=O)c1c(F)c(F)c(F)c(F)c1F)S(C)(=O)=O [Compound 1064, 4-(N-(3-(tert-butyl)-5-cyclopropylbenzyl)-2-(N-(2-fluorobenzyl)-(2,3,4,5,6-pentafluoro-phenyl)sulfonamido)acetamido)-3-(N-methylmethylsulfonamido) benzoic acid] | 4.12 to 9.23 | 1 to 3.16
19 | O=C(O)c1ccc(N(Cc2cccc(N3CCCC3)c2)C(=O)CN(Cc2ncccc2C(F)(F)F)S(=O)(=O)c2c(F)c(F)c(F)c(F)c2F)c(OC2CC2)c1 [Compound 1160, 3-cyclopropoxy-4-(2-(N-((3-(trifluoromethyl)pyridin-2-yl)methyl)-(2,3,4,5,6-pentafluoro-phenyl)sulfonamido)-N-(3-(pyrrolidin-1-yl)benzyl)acetamido) benzoic acid] | 0.00167 to 2.37 | 
20 | COc1cc(C(=O)OC(C)C)ccc1N(Cc1cc(C2CC2)cc(C(C)(C)C)c1)C(=O)CN(Cc1cnccc1C(F)(F)F)S(=O)(=O)c1c(F)c(F)c(F)c(F)c1F [Compound 1172, isopropyl 4-(N-(3-(tert-butyl)-5-cyclopropylbenzyl)-2-(N-((4-(trifluoromethyl)pyridin-3-yl)methyl)-(2,3,4,5,6-pentafluoro-phenyl)sulfonamido)acetamido)-3-methoxybenzoate] | 9.23 to 1670 | 
21 | COc1cc(C(=O)O)ccc1N(Cc1cc(C2CC2)cc(C(C)(C)C)c1)C(=O)CN(Cc1ncc(Cl)cc1F)S(=O)(=O)c1c(F)c(F)c(F)c(F)c1F [Compound 1177, 4-(N-(3-(tert-butyl)-5-cyclopropylbenzyl)-2-(N-((5-chloro-3-fluoropyridin-2-yl)methyl)-(2,3,4,5,6-pentafluorophenyl)sulfon-amido)acetamido)-3-methoxybenzoic acid] | 0.00167 to 2.37 | 
22 | COc1cc(O)ccc1N(Cc1cc(C2CC2)cc(C(C)(C)C)c1)C(=O)CN(Cc1cnccc1C(F)(F)F)S(=O)(=O)c1c(F)c(F)c(F)c(F)c1F [Compound 1267, N-(3-(tert-butyl)-5-cyclopropylbenzyl)-N-(4-hydroxy-2-methoxyphenyl)-2-(N-((4-(trifluoromethyl)pyridin-3-yl)methyl)-(2,3,4,5,6-pentafluoro-phenyl)sulfonamido) acetamide] | 9.23 to 1670 | 
